Measurements taken from US10774082B2, “Quinazoline compound” (Astellas Pharma Inc., priority 2017, dated 2020).
Like-named read-outs stand apart in the source and are kept apart here.

Columns and labels:
[1] = biological target: T1, KRAS G12C/SOS/c-Raf complex (Homo sapiens, UniProt P01116, G12C); experiment: KRAS G12C/SOS/c-Raf complex formation inhibitory action (TR-FRET); type: biochemical; conditions: one hour at room temperature, read-out: IC50 (KRAS G12C/SOS/c-Raf complex formation inhibition)
T1 construct: Biotinylated AviTag-KRAS G12C (amino acid region 1-185, GDP)
Procedure: Evaluation of KRAS G12C/SOS/c-Raf Complex Formation Inhibitory Action
Human Recombinant KRAS G12C, SOS, and c-Raf protein were used, and with respect to the complex formation of these proteins, an inhibitory action of the test compound was examined through a time-resolved fluorescence resonance energy transfer (TR-FRET) method.
Biotinylated AviTag-KRAS G12C (amino acid region 1-185, GDP) (2.5 μL; 400 nM) dissolved in assay buffer (50 mM HEPES, 150 mM NaCl, 5 mM MgCl2, 0.05% Tween 20, pH 7.4) and test compound were added in a volume of 2.5 μL from 4,000 nM to 4 nM were added to 384 well plate (Corning Inc). Son of Sevenless (SOS) (amino acid region 564-1049, 2.5 μL; 1.3 μM) and c-Raf (amino acid region 51-131) GST containing GTP (Sigma-Aldrich Co. LLC) (2.5 μL; 130 nM and 4 μM of each) were added to the above mixture, and the resultant was left to stand for one hour at room temperature. Thereafter, a mixed solution (10 μL) of LANCE Ulight-anti-GST (120 nM, PerkinElmer. Co., Ltd) and LANCE Eu-W1024 labeled Streptoavidin (100 ng/mL, PerkinElmer. Co., Ltd) was added, and a fluorescence intensity on the condition of wavelength of 620 nm and 665 nm was measured by using EnVision 2103 Multilabel Reader (PerkinElmer Co., Ltd.) under the condition of excitation wavelength of 337 nm. […] In Tables, Ex represents Example numbers described later. In addition, in Tables, Compound C represents a test compound of Example I-59 disclosed in Pamphlet of International Publication No. WO 2016/164675, and the structures of Reference Example 1 and Reference Example 2 are indicated in Table 168 described below (the same shall apply hereinafter).

NCI-H1373 cells = experiment: Anchorage-independent cell proliferation inhibitory action, NCI-H1373 spheroid three-dimensional culture; type: cell-based, Human; conditions: Homo sapiens, NCI-H1373, 144 h, read-out: IC50 (anchorage-independent cell proliferation inhibition)
Procedure: Evaluation of Anchorage-Independent Cell Proliferation Inhibitory Action with Respect to Human KRAS G12C Mutation Positive Non-Small Cell Lung Cancer Strain NCI-H1373
An anchorage-independent cell proliferation inhibitory action by the test compound was evaluated by a spheroid three-dimensional culture.
NCI-H1373 cells were seeded in cell low adsorption U bottom 384 well plates (Prime Surface: Sumitomo Bakelite Co., Ltd.) at 36 μL/well each so as to be 5×10^2 cell per well. The cell culture was performed under the same conditions as Test example 2.
The next day, the test compounds (six points in a range of final concentration 1,000 nM to 0.3 nM) and DMSO which is a solvent of the test compound as a negative control were diluted 100-fold with fresh medium, 4 μL each was added to each well. After culturing at 37° C. in the presence of 5% CO2 for six days, 20 μL of CellTiter Glo or to CellTiter Glo 2.0 (Promega Corporation) was added to each well. After stirring for one hour at room temperature using a plate mixer (FINEPCR), an emission signal was measured with ARVO X3 (PerkinElmer Co., Ltd.).
When a signal value in a DMSO treatment was set as 0% inhibition, and a signal value in cell-free medium only was set as 100% inhibition, a value of 50% inhibition (IC50) was calculated through Sigmoid-Emax model nonlinear regression analysis.

[2] = system: ERK phosphorylation (Thr 202/Tyr 204) in NCI-H1373 cells; experiment: ERK phosphorylation inhibitory action in NCI-H1373 (Cell ELISA); type: cell-based, Human; conditions: Homo sapiens, NCI-H1373, 2 h, read-out: IC50 (ERK phosphorylation inhibition)
Procedure: Evaluation of ERK Phosphorylation Inhibitory Action with Respect to Human KRAS G12C Mutation Positive Non-Small Cell Lung Cancer Strain NCI-H1373
The ERK phosphorylation inhibitory action by the test compound was evaluated by measuring phosphorylation of 202th threonine (Thr 202) and 204th tyrosine (Tyr 204) of ERK on the downstream of the KRAS signal by Cell ELISA.
NCI-H1373 cells (ATCC, CRL-5866) were seeded in 384 well plates (Greiner bio-one) at 36 μL/well each so as to be 2×10^4 cell per well. Cell culture was performed under the conditions of temperature of 37° C. in the presence of 5% CO2 by using RPMI 1640 medium (Sigma-Aldrich Co. LLC) containing 10% fetal bovine serum (GE Life Sciences).
The next day, the test compounds (six points in a range of final concentration 1,000 nM to 0.3 nM), final concentration 1 μM of Trametinib (GlaxoSmithKline Inc.; MEK inhibitor) as a positive control, and DMSO which is a solvent of the test compound as a negative control were diluted 100-fold with fresh medium, 4 μL each was added to each well, and then cultured for 2 hours. Immediately after culturing, 30 μL of 30% glyoxal solution (Wako: 40% glyoxal diluted with Phosphate Buffered Saline (PBS; Wako)) was added to each well, and the cells were left to stand at room temperature for one hour to be fixed. Thereafter, the supernatant was removed by centrifuging the plate (110×g for 7 seconds, unless otherwise stated below under the same conditions), and 20 μL of PBS containing 0.1% Triton X-100 (Amersham Biosciences Corp.) was added to each well. After being left to stand at room temperature for 10 minutes, the supernatant was removed by centrifugation, and the same operation was repeated. Next, 20 μL of PBS containing 0.5% SDS (Invitrogen) was added to each well, and the mixture was left to stand at room temperature for 30 minutes, and then centrifuged to remove the supernatant. Subsequently, 20 μL of a blocking solution (ODYSSEY Blocking Buffer; LI-COR Biosciences) was added to each well, and left to stand at room temperature for one hour. The supernatant was removed by centrifugation, and 10 μL of a blocking solution prepared by diluting ERK (Thr 202/Tyr 204) of a phosphorylation antibody (Cell Signaling Technology, Inc.) as a primary antibody to be ½, 500 amount with respect to a stock solution was added to each well and was left to stand at 4° C. for overnight.
The next day, a reaction liquid is removed by centrifuging the plate, 20 μL of 0.05% Tween-20-containing PBS (Thermo Scientific; 20×PBS Tween-20 diluted 20-fold with ion exchanged water) was added to each well, and each well was washed by removing the supernatant by centrifugation. Washing was performed three times in total. After washing, 10 μL of a blocking solution prepared by diluting IRDye 800CW Goat anti-Rabbit IgG (LI-COR Biosciences) as a secondary antibody to be 1/1,000 amount with respect to a stock solution was added to each well and was left to stand at room temperature for one hour. The reaction liquid was removed by centrifuging the plate, and each well was washed three times with 0.05% Tween-20-containing PBS in the same manner as after primary antibody reaction. The centrifugation after the third wash was 171×g for 17 seconds. After removal of the cleaning solution, the plate was left to air dry at room temperature for three hours or more and the fluorescent signal at 800 nm was measured by Aerius (LI-COR Biosciences).
When a signal value at the time of adding DMSO was set as 0% inhibition, and a signal value at the time of adding 1 μM of Trametinib was set as 100% inhibition, a value of 50% inhibition (IC50) was calculated through Sigmoid-Emax model nonlinear regression analysis.

[3] = NCI-H1373 spheroid, six days, CellTiter Glo
[4] = NCI-H1373 cells, cultured for 2 hours, 100% = 1 μM Trametinib

T1 sequence (P01116 1-185 isoform P01116-2 G12C, one chain of several): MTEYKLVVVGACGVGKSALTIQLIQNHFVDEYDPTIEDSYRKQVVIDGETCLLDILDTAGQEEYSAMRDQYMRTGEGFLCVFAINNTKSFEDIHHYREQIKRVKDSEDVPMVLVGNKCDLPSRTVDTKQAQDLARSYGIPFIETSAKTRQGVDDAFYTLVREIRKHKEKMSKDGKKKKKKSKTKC

Row | IC50 [1] [nM] | IC50 (NCI-H1373 cells; [3]) [nM] | IC50 [2, 4] [nM] | SMILES | IC50 (NCI-H1373 cells) [nM] | IC50 [2] [nM]
1 | 44 | 13 | 4.4 | C=CC(=O)N1CC2(CCN(c3nc(N4CCC(N(C)C)CC4)nc4c(OCC(F)(F)F)c(-c5c(C)ccc6[nH]ncc56)c(C=C)cc34)CC2)C1 [Example 42] | – | –
2 | 48 | 8.1 | 5.5 | C=CC(=O)N1CC2(CCN(c3nc(OC4CCN(CC5CC5)CC4)nc4c(OCC(F)(F)F)c(-c5c(C)ccc6[nH]ncc56)c(C=C)cc34)CC2)C1 [Example 46] | – | –
3 | 43 | 17 | 5.6 | C=CC(=O)N1CC2(CCN(c3nc(OC4CCN(CCOC(C)C)CC4)nc4c(OCC(F)(F)F)c(-c5c(C)ccc6[nH]ncc56)c(C=C)cc34)CC2)C1 [Example 47] | – | –
4 | 54 | 15 | 5.9 | C=CC(=O)N1CC2(CCN(c3nc(OC4CCN(C)CC4C)nc4c(OCC(F)(F)F)c(-c5c(C)ccc6[nH]ncc56)c(C=C)cc34)CC2)C1 (stereo not drawn) [Example 48] | – | –
5 | 41 | 4.6 | 2.9 | C=CC(=O)N1CC2(CCN(c3nc(OC4CCN(CCOC)CC4)nc4c(OCC(F)(F)F)c(-c5c(C=C)ccc6[nH]ncc56)c(C=C)cc34)CC2)C1 [Example 49] | – | –
6 | 37 | 9.8 | 6.8 | C=CC(=O)N1CC2(CCN(c3nc(OC4CCN(CCOC)CC4)nc4c(OC(F)F)c(-c5c(C)ccc6[nH]ncc56)c(C=C)cc34)CC2)C1 [Example 53] | – | –
7 | 60 | 6.8 | 7.2 | C=CC(=O)N1CC2(CCN(c3nc(OC4CCN(CCC#N)CC4)nc4c(OCC)c(-c5c(C)ccc6[nH]ncc56)c(C5CC5)cc34)CC2)C1 [Example 54] | – | –
8 | 83 | 43 | 7.4 | C=CC(=O)N1CC2(CCN(c3nc(OC4CCN(C(CF)CF)CC4)nc4c(OCC(F)(F)F)c(-c5c(C)ccc6[nH]ncc56)c(C=C)cc34)CC2)C1 [Example 55] | – | –
9 | 52 | 39 | 8.2 | C=CC(=O)N1CC2(CCN(c3nc(OC4CCN(C)CC4)nc4c(OCc5cccc(OC)c5)c(-c5c(C)ccc6[nH]ncc56)c(C=C)cc34)CC2)C1 [Example 57] | – | –
10 | 57 | 17 | 8.4 | C=CC(=O)N1CC2(CCN(c3nc(OC4CCN(C)CC4)nc4c(OCc5ccc(C)cc5)c(-c5c(C)ccc6[nH]ncc56)c(C=C)cc34)CC2)C1 [Example 58] | – | –
11 | 63 | 26 | 8.4 | C=CC(=O)N1CC2(CCN(c3nc(N4CCN(CCOC)CC4)nc4c(OCC(F)(F)F)c(-c5c(C)ccc6[nH]ncc56)c(C=C)cc34)CC2)C1 [Example 59] | – | –
12 | 98 | 35 | 8.8 | C=CC(=O)N1CC2(CCN(c3nc(OC4CCN(CCC(F)(F)F)CC4)nc4c(OCC(F)(F)F)c(-c5c(C)ccc6[nH]ncc56)c(C=C)cc34)CC2)C1 [Example 60] | – | –
13 | 56 | 17 | 8.8 | C=CC(=O)N1CC2(CCN(c3nc(OC4CCN(C)CC4)nc4c(OCc5ccccc5)c(-c5c(C)ccc6[nH]ncc56)c(C=C)cc34)CC2)C1 [Example 61] | – | –
14 | 37 | 14 | 8.8 | C=CC(=O)N1CC2(CCN(c3nc(OC4CCN(CCOC)CC4)nc4c(OCC(F)(F)F)c(-c5c(C)ccc6cn[nH]c56)c(C=C)cc34)CC2)C1 [Example 62] | – | –
15 | 53 | 14 | 6.6 | C=CC(=O)N1CC2(CCN(c3nc(OC4CCN(C)CC4)nc4c(OCC(C)(F)F)c(-c5c(C)ccc6[nH]ncc56)c(C=C)cc34)CC2)C1 [Example 63] | – | –
16 | 32 | 15 | 9.1 | C=CC(=O)N1CC2(CCN(c3nc(O[C@H]4CC[C@@H](N(C)C)CC4)nc4c(OCC(F)(F)F)c(-c5c(C)ccc6[nH]ncc56)c(C=C)cc34)CC2)C1 [Example 64] | – | –
17 | 47 | 39 | 9.7 | C=CC(=O)N1CC2(CCN(c3nc(OC4CCN(C)CC4)nc4c(OCc5ccc(OC(F)F)cc5)c(-c5c(C)ccc6[nH]ncc56)c(C=C)cc34)CC2)C1 [Example 66] | – | –

Row | SMILES | IC50 [1] [nM] | IC50 (NCI-H1373 cells; [3]) [nM] | IC50 [2, 4] [nM] | IC50 (NCI-H1373 cells) [nM] | IC50 [2] [nM]
18 | C=CC(=O)N1CC2(CCN(c3nc(OC4CCN(C5CC5)CC4)nc4c(OCC)c(-c5c(C)ccc6[nH]ncc56)c(C5CC5)cc34)CC2)C1 [Example 43] | 50 | – | – | 6 | 5
19 | C=CC(=O)N1CC2(CCN(c3nc(OC4CCN(CC5CCOCC5)CC4)nc4c(OCC(F)(F)F)c(-c5c(C)ccc6[nH]ncc56)c(C=C)cc34)CC2)C1 [Example 44] | 41 | – | – | 7.6 | 5.1
20 | C=CC(=O)N1CC2(CCN(c3nc(OC4CCN(CCN5CCOCC5)CC4)nc4c(OCC(F)(F)F)c(-c5c(C)ccc6[nH]ncc56)c(C5CC5)cc34)CC2)C1 [Example 45] | 38 | – | – | 7.3 | 5.2
